BindingDB's records for doi:10.1016/j.bmcl.2015.04.102 (Arena Pharmaceuticals, 2015)

Test: Displacement of [3H]-Astemizole from human ERG

IC50: > 1000 µM
SMILES: C[C@@H](OC(=O)N1CCC(O[C@H]2CC[C@H](Oc3cnc(S(C)(=O)=O)cn3)CC2)CC1)C(F)(F)F
